Tests used:
[1] = molecular target: T1, Liver carboxylesterase (Sus scrofa, UniProt Q29550); assay: Inhibition of porcine liver carboxylesterase using [14C]GS-7340 substrate
T1 sequence (Q29550 whole entry): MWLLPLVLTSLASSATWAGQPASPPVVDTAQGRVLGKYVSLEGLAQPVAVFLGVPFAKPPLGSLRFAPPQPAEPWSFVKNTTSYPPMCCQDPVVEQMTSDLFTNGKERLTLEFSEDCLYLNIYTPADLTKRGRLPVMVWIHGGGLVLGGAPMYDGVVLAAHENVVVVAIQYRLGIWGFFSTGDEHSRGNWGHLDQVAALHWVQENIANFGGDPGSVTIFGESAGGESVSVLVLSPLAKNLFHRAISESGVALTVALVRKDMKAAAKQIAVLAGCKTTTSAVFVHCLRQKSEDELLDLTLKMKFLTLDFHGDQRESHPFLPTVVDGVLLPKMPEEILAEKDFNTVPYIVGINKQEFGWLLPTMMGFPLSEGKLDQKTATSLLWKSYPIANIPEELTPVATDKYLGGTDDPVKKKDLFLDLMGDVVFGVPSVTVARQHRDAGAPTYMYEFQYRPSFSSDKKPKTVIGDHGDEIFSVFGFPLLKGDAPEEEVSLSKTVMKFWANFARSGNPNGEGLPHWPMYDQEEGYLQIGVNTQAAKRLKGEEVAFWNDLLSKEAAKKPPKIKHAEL

[2] = Inhibition of purified prodrug hydrolase using [14C]GS-7340 substrate; set-up: species or system Homo sapiens
[3] = Inhibition of crude human PBMC extract prodrug hydrolase using [14C]GS-7340 substrate
[4] = molecular target: T2, Lysosomal protective protein (Homo sapiens, UniProt P10619); assay: Inhibition of recombinant CatA using [14C]GS-7340 substrate
T2 sequence (P10619 whole entry): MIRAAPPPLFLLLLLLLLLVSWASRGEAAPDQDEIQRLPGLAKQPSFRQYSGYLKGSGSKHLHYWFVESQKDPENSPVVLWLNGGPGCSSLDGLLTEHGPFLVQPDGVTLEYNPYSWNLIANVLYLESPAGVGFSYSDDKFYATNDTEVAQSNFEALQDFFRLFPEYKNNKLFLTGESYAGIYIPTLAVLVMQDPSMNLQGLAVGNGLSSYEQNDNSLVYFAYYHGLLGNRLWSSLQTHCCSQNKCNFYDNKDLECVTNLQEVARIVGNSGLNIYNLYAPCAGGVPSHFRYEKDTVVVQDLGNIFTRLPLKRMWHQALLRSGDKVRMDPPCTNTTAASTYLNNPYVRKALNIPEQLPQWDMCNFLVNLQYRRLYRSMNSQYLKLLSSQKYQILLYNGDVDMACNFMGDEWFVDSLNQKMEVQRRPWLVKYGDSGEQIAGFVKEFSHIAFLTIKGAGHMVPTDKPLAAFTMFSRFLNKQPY

[5] = molecular target: T3, Neutrophil elastase (Homo sapiens, UniProt P08246); assay: Inhibition of human leukocyte elastase using [14C]GS7340 substrate
T3 sequence (P08246 whole entry): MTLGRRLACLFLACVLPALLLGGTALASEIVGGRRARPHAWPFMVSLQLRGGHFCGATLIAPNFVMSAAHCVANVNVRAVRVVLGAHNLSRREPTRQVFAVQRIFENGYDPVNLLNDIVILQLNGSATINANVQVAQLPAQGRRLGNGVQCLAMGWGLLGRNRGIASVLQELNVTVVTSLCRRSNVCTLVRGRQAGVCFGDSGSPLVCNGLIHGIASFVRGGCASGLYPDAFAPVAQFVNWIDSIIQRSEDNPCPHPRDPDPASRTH

## O=c1oc(Cl)c(Cl)c2ccccc12
[1]
  IC50: > 250 µM
[2]
  IC50: 0.5 µM
[3]
  IC50: 5 µM
[4]
  IC50: 0.6 µM

## CC(C)C[C@H](NC(=O)[C@H]1O[C@@H]1C(=O)O)C(=O)NCCCCN=C(N)N [E-64]
[5]
  IC50: > 300 µM
[1]
  IC50: > 300 µM
[2]
  IC50: > 300 µM
[3]
  IC50: > 300 µM
[4]
  IC50: > 300 µM
